Source: the supplement of paper PMC8617591

Assays:
[1] = tested on: Mycobacterium tuberculosis Erdman (autoluminescent); experiment: total FIC50 (Loewe) at 50% inhibition, three-drug combination (log2); higher = more antagonistic
Method: (§1)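 DiaMOND equipotent three-drug combination dose responses (10 doses, 1.5- or 2-fold spacing, centred on IC90) against autoluminescent M. tuberculosis Erdman in 8 in vitro models. Read-out is OD600, or luminescence for the intracellular and dormancy models, normalised to untreated wells. Hill-fit Einf, AUC25 and GRinf are potency metrics; FIC50 and FIC90 are total Loewe fractional inhibitory concentrations as log2 (negative = synergy).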

[2] = tested on: Mycobacterium tuberculosis Erdman (autoluminescent); experiment: total FIC90 (Loewe) at 90% inhibition, three-drug combination (log2); higher = more antagonistic
Method: as §1

[3] = tested on: Mycobacterium tuberculosis Erdman (autoluminescent); experiment: Einf, fitted maximum growth inhibition of three-drug combination (fraction); higher = stronger maximal inhibition
Method: as §1

[4] = tested on: Mycobacterium tuberculosis Erdman (autoluminescent); experiment: AUC25, normalised area under dose response up to IC25 (three-drug combination) (fraction (0-1)); higher = more potent at low dose
Method: as §1

[5] = tested on: Mycobacterium tuberculosis Erdman (autoluminescent); experiment: GRinf, maximum normalised growth rate inhibition (three-drug combination) (unitless (-1 to 1)); higher = less effect (negative = killing)
Method: as §1

COc1nc2ccc(Br)cc2cc1[C@@H](c1ccccc1)[C@@](O)(CCN(C)C)c1cccc2ccccc12 [bedaquiline] + COc1c(N2C[C@@H]3CCCN[C@@H]3C2)c(F)cc2c(=O)c(C(=O)O)cn(C3CC3)c12 [moxifloxacin] + O=[N+]([O-])c1cn2c(n1)OC[C@@H](OCc1ccc(OC(F)(F)F)cc1)C2 [pretomanid]
Details | AUC25, [4] | Einf, [3] | GRinf, [5] | total FIC50, [1] | total FIC90, [2]
in vitro model: acidic pH 5.7, time point: constant (~7 days, model-specific) | 0.1 | 0.838 | -0.377 | 0.596 | –
in vitro model: acidic pH 5.7, time point: terminal (~4-5 doublings, model-specific) | 0.0692 | 0.971 | -0.329 | 0.946 | 0.743
in vitro model: intracellular J774, time point: constant = terminal | – | 0.972 | -0.42 | – | 0.518

Details | AUC25, [4] | Einf, [3] | GRinf, [5] | total FIC50, [1] | total FIC90, [2]
in vitro model: butyrate, time point: constant (~7 days, model-specific) | 0.11 | 0.974 | -0.202 | 0.96 | 1.4
in vitro model: butyrate, time point: terminal (~4-5 doublings, model-specific) | 0.0807 | 0.979 | -0.386 | 1.02 | 1.52
in vitro model: cholesterol 0.05 mM, time point: constant (~7 days, model-specific) | 0.102 | 0.689 | -0.187 | 0.771 | –
in vitro model: cholesterol 0.05 mM, time point: terminal (~4-5 doublings, model-specific) | 0.0953 | 0.946 | -0.21 | 0.672 | 0.565
in vitro model: cholesterol-high 0.2 mM, time point: constant (~7 days, model-specific) | 0.0866 | 0.945 | -0.309 | 0.743 | 1.24
in vitro model: cholesterol-high 0.2 mM, time point: terminal (~4-5 doublings, model-specific) | 0.082 | 1 | -0.571 | 0.598 | 0.93
in vitro model: dormancy (butyrate + nitrate, low O2), time point: constant (~7 days, model-specific) | 0.0412 | 0.905 | 0.272 | 0.0257 | -0.733
in vitro model: dormancy (butyrate + nitrate, low O2), time point: terminal (~4-5 doublings, model-specific) | 0.0577 | 0.995 | -0.1 | 0.157 | 0.118
in vitro model: standard 7H9 glycerol, time point: constant = terminal | 0.08 | 0.98 | -0.122 | -0.0856 | -0.137
in vitro model: valerate, time point: constant (~7 days, model-specific) | 0.123 | 0.932 | -0.393 | 0.261 | –
in vitro model: valerate, time point: terminal (~4-5 doublings, model-specific) | 0.0843 | 0.956 | -0.165 | 0.431 | 0.866

COc1nc2ccc(Br)cc2cc1[C@@H](c1ccccc1)[C@@](O)(CCN(C)C)c1cccc2ccccc12 [bedaquiline] + NC(=O)c1cnccn1 [pyrazinamide] + CO[C@H]1/C=C/O[C@@]2(C)Oc3c(C)c(O)c4c(O)c(c(/C=N/N5CCN(C6CCCC6)CC5)c(O)c4c3C2=O)NC(=O)/C(C)=C\C=C\[C@H](C)[C@H](O)[C@@H](C)[C@@H](O)[C@@H](C)[C@H](OC(C)=O)[C@@H]1C [rifapentine]
Details | AUC25, [4] | Einf, [3] | GRinf, [5] | total FIC50, [1] | total FIC90, [2]
in vitro model: acidic pH 5.7, time point: constant (~7 days, model-specific) | 0.105 | 0.951 | -0.444 | 0.212 | –
in vitro model: acidic pH 5.7, time point: terminal (~4-5 doublings, model-specific) | 0.0905 | 0.987 | -0.331 | 0.0918 | 0.167
in vitro model: intracellular J774, time point: constant = terminal | – | 0.984 | -0.419 | – | 0.111

Details | AUC25, [4] | Einf, [3] | GRinf, [5] | total FIC50, [1] | total FIC90, [2]
in vitro model: butyrate, time point: constant (~7 days, model-specific) | 0.109 | 0.973 | -0.292 | 0.368 | 0.452
in vitro model: butyrate, time point: terminal (~4-5 doublings, model-specific) | 0.0948 | 0.995 | -0.264 | 0.608 | 0.896
in vitro model: cholesterol 0.05 mM, time point: constant (~7 days, model-specific) | 0.113 | 0.75 | -0.416 | – | –
in vitro model: cholesterol 0.05 mM, time point: terminal (~4-5 doublings, model-specific) | 0.0882 | 0.854 | -0.194 | 0.907 | –
in vitro model: cholesterol-high 0.2 mM, time point: constant (~7 days, model-specific) | 0.0619 | 0.959 | -0.405 | 0.688 | –
in vitro model: cholesterol-high 0.2 mM, time point: terminal (~4-5 doublings, model-specific) | 0.0597 | 1 | -0.644 | 1.1 | 0.6
in vitro model: dormancy (butyrate + nitrate, low O2), time point: constant (~7 days, model-specific) | 0.0664 | 0.907 | 0.181 | -0.395 | -0.492
in vitro model: dormancy (butyrate + nitrate, low O2), time point: terminal (~4-5 doublings, model-specific) | 0.0515 | 0.988 | -0.135 | 0.0969 | -0.227
in vitro model: standard 7H9 glycerol, time point: constant = terminal | 0.0752 | 0.917 | 0.0581 | -0.269 | –
in vitro model: valerate, time point: constant (~7 days, model-specific) | 0.0676 | 0.855 | -0.194 | 0.992 | –
in vitro model: valerate, time point: terminal (~4-5 doublings, model-specific) | 0.0334 | 0.939 | -0.182 | 0.965 | 0.779

COc1nc2ccc(Br)cc2cc1[C@@H](c1ccccc1)[C@@](O)(CCN(C)C)c1cccc2ccccc12 [bedaquiline] + NC(=O)c1cnccn1 [pyrazinamide] + CO[C@H]1/C=C/O[C@@]2(C)Oc3c(C)c(O)c4c(O)c(c(/C=N/N5CCN(C)CC5)c(O)c4c3C2=O)NC(=O)/C(C)=C\C=C\[C@H](C)[C@H](O)[C@@H](C)[C@@H](O)[C@@H](C)[C@H](OC(C)=O)[C@@H]1C [rifampicin]
Details | AUC25, [4] | Einf, [3] | GRinf, [5] | total FIC50, [1] | total FIC90, [2]
in vitro model: acidic pH 5.7, time point: constant (~7 days, model-specific) | 0.0834 | 0.901 | -0.315 | 0.337 | –
in vitro model: acidic pH 5.7, time point: terminal (~4-5 doublings, model-specific) | 0.0711 | 0.981 | -0.241 | 0.285 | -0.207
in vitro model: intracellular J774, time point: constant = terminal | – | 0.999 | -0.44 | – | 0.24

Details | AUC25, [4] | Einf, [3] | GRinf, [5] | total FIC50, [1] | total FIC90, [2]
in vitro model: butyrate, time point: constant (~7 days, model-specific) | 0.118 | 0.967 | -0.45 | 0.454 | 0.281
in vitro model: butyrate, time point: terminal (~4-5 doublings, model-specific) | 0.11 | 0.993 | -0.729 | 0.529 | 0.948
in vitro model: cholesterol 0.05 mM, time point: constant (~7 days, model-specific) | 0.102 | 0.776 | -0.214 | – | –
in vitro model: cholesterol 0.05 mM, time point: terminal (~4-5 doublings, model-specific) | 0.0832 | 0.929 | -0.267 | 1.1 | –
in vitro model: cholesterol-high 0.2 mM, time point: constant (~7 days, model-specific) | 0.0476 | 0.933 | -0.352 | 0.834 | –
in vitro model: cholesterol-high 0.2 mM, time point: terminal (~4-5 doublings, model-specific) | 0.0598 | 1 | -0.624 | 1.34 | 0.74
in vitro model: dormancy (butyrate + nitrate, low O2), time point: constant (~7 days, model-specific) | 0.0673 | 0.914 | 0.179 | -0.454 | -0.722
in vitro model: dormancy (butyrate + nitrate, low O2), time point: terminal (~4-5 doublings, model-specific) | 0.0465 | 0.984 | -0.139 | -0.149 | -0.476
in vitro model: standard 7H9 glycerol, time point: constant = terminal | 0.0766 | 0.913 | 0.0332 | 0.401 | –
in vitro model: valerate, time point: constant (~7 days, model-specific) | 0.0558 | 0.839 | 0.0298 | 0.905 | –
in vitro model: valerate, time point: terminal (~4-5 doublings, model-specific) | 0.032 | 0.935 | 0.00447 | 0.857 | 0.584
